US7423051B2, “2,6-diaminopyridine derivatives” (Hoffmann-La Roche Inc., priority 2004, dated 2008)
Where two headings read alike, the source gives them in different places.

Experiments:
[1] = test system: HCT116 cell line; assay: Tetrazolium dye proliferation assay (MTT assay); format: cell-based; settings: HCT-116; human colon tumor cell line HCT116, MTT assay
Experimental: Cell Based Assays (Tetrazolium dye proliferation assay)(“MTT Assay”)
Proliferation was evaluated by the tetrazolium dye assay according to the procedure of Denizot and Lang (Denizot, F. and Lang, R. J Immunol Methods 1986, 89, 271-277). The cell line used was HCT116, a colorectal carcinoma cell line obtained from the American Type Cell Culture Collection (ATCC; Rockville, Md.). The cells were grown in McCoy's 5A medium supplemented with 10% FCS and L-glutamine.
Cells were plated at the appropriate seeding density to give logarithmic growth over the course of the assay in a 96-well tissue culture plate. Plates were incubated overnight at 37° C. in a humidified incubator with 5% CO2. The next day, test compounds were serially diluted to four times the final concentration in the appropriate medium containing 1.2% DMSO. One-fourth final volume of each dilution was added in duplicate to the plates containing cells. The same volume of 1.2% DMSO in medium was added to a row of “control wells” such that the final concentration of DMSO in each well was 0.3%. Wells to which no cells were added served as the “blank.” Wells to which no inhibitor was added served as “no inhibitor control.” The plates were returned to the incubator, and at set time points (determined by their growth curves) plates were analyzed as described below.
3-(4,5-dimethylthiazole-2-yl)-2,5-diphenyl-2H-tetrazolium bromide (thiazolyl blue; MTT; Sigma) was added to each well to yield a final concentration of 1 mg/ml. Plates were returned to the incubator for 2.5-3 hours at 37° C. […] Absorbance readings were taken in a microtiter plate reader (Dynatech and Molecular Devices plate readers were used interchangeably) at a wavelength of 570 nm with a 650 nm reference. Percent inhibition (% INH) is calculated by subtracting the absorbance of the blank well from all wells, then subtracting the ratio of the average absorbance of each test duplicate (SAVE) by the average of the controls (CAVE) from 1.00. […]

[2] = biological target: T1, human cyclin B-CDK1 (Homo sapiens, UniProt P06493); assay: CDK1 HTRF kinase assay (Ki measurement); format: biochemical; settings: Rb substrate, ATP at 3x Km, Ki=IC50/(1+S/Km)
T1 construct: made in house; host or cells: High Five insect cells (baculovirus)
T1 sequence (P06493 whole entry): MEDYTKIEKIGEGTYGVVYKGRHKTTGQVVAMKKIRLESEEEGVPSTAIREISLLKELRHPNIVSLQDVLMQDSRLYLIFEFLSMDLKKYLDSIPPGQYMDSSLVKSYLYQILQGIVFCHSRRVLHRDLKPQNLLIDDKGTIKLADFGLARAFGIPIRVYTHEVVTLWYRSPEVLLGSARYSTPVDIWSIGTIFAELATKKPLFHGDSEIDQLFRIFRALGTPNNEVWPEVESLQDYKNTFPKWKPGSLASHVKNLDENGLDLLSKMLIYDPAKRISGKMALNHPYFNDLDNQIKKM
T1 sequence (P14635 whole entry partner): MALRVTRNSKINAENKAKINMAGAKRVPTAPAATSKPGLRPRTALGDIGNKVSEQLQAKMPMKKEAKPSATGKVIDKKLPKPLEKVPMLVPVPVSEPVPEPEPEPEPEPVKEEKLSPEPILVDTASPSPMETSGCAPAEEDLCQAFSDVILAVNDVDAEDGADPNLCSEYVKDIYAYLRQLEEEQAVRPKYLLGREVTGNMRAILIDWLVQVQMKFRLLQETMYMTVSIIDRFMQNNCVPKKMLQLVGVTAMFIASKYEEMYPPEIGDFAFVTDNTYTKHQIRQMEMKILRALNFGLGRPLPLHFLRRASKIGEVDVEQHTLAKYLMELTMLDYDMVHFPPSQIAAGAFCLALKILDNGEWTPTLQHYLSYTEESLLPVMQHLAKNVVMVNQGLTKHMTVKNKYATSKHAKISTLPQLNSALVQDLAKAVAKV
Excerpt: Using recombinant human cyclin B-CDK1, human cyclin E-CDK2 or human cyclin D1-CDK4 complexes. GST-cyclinE (GST-cycE), CDK2, GST-cyclinB (GST-cycB), CDK1, GST-CDK4 and cyclin D1 (cycD1) cDNA clones in baculovirus vectors were provided by Dr. W. Harper at the Baylor College of Medicine, Houston, Tex. Proteins were co-expressed in High Five™ insect cells and the complex was purified on glutathione Sepharose resin (Pharmacia, Piscataway, N.J.) as previously described (Harper, J. W. et al. Cell 1993, 75, 805-816). […]
(§1) The expression of the 62Kd protein was under the control of an IPTG inducible promoter in an M15 E. coli strain. […] Purified Rb fusion protein stocks were quantitated for protein concentration, aliquoted, and stored at −70° C.
(§2) Using the protein constructs described above, CDK1, CDK2, and CDK4 HTRF assays were set up. These were done in 96-well format and read in 384-well plate format. […]
In the CDK4 assay, test compounds were diluted to 3× their final concentrations in 25 mM Hepes, pH 7.0, 6.25 mM MgCl2, 1.5 mM DTT, 135 μM ATP. […] The plates were read using either ViewLux or Victor V readers (PerkinElmer Life Sciences) using an excitation wavelength of 340 nm and dual emission wavelengths of 615 nm and 665 nm. […]

[3] = biological target: T2, human cyclin E-CDK2 (Homo sapiens, UniProt P24941); assay: CDK2 HTRF kinase assay (Ki measurement); format: biochemical; settings: Rb substrate, ATP at 3x Km, Ki=IC50/(1+S/Km)
T2 construct: made in house; host or cells: High Five insect cells (baculovirus)
Excerpt: (§3) Using recombinant human cyclin B-CDK1, human cyclin E-CDK2 or human cyclin D1-CDK4 complexes. GST-cyclinE (GST-cycE), CDK2, GST-cyclinB (GST-cycB), CDK1, GST-CDK4 and cyclin D1 (cycD1) cDNA clones in baculovirus vectors were provided by Dr. W. Harper at the Baylor College of Medicine, Houston, Tex. Proteins were co-expressed in High Five™ insect cells and the complex was purified on glutathione Sepharose resin (Pharmacia, Piscataway, N.J.) as previously described (Harper, J. W. et al. Cell 1993, 75, 805-816). A 6×-Histidine tagged truncated form of retinoblastoma (Rb) protein (amino acid 386-928) was used as the substrate for the cycD1-CDK4, cycB-CDK1 and the cycE-CDK2 assays (the expression plasmid was provided by Dr. Veronica Sullivan, Department of Molecular Virology, Roche Research Centre, Welwyn Garden City, United Kingdom). The Rb protein is a natural substrate for phosphorylation by CDK4, CDK2 and CDK1 (see Herwig and Strauss Eur. J. Biochem. Vol. 246 (1997) pp.581-601 and the references cited therein).
as §1, §2
In the CDK4 assay, test compounds were diluted to 3× their final concentrations in 25 mM Hepes, pH 7.0, 6.25 mM MgCl2, 1.5 mM DTT, 135 μM ATP. […] The plates were read using either ViewLux or Victor V readers (PerkinElmer Life Sciences) using an excitation wavelength of 340 nm and dual emission wavelengths of 615 nm and 665 nm. […] For ATP competitive inhibitors, the Ki values were calculated according to the following equation: Ki=IC50/(1+S/Km) where S refers to the substrate concentration (ATP) and Km refers to the Michaelis-Menten constant for the ATP. […]

[4] = biological target: T3, human cyclin D1-CDK4 (Homo sapiens, UniProt P11802); assay: CDK4 HTRF kinase assay (Ki measurement); format: biochemical; settings: Rb substrate, ATP at 3x Km, Ki=IC50/(1+S/Km)
T3 construct: GST (N); made in house; host or cells: High Five insect cells (baculovirus)
T3 sequence (P11802 whole entry): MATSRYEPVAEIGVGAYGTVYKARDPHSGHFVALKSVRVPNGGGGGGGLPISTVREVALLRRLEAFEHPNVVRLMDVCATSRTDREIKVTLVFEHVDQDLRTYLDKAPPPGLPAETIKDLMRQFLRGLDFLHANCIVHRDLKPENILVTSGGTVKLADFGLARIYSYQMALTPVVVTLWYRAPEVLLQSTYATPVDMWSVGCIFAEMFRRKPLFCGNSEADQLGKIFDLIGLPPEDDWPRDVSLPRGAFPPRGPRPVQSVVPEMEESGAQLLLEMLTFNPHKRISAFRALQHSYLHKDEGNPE
T3 sequence (P24385 whole entry partner): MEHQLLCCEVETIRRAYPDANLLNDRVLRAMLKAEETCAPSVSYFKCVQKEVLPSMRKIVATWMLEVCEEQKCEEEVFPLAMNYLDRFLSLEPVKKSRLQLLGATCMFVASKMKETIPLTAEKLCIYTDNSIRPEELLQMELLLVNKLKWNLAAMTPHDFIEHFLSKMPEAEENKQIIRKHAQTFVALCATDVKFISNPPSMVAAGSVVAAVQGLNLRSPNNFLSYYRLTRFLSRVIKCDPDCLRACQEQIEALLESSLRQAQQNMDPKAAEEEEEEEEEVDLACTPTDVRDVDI
Excerpt: as §3, §1, §2
In the CDK4 assay, test compounds were diluted to 3× their final concentrations in 25 mM Hepes, pH 7.0, 6.25 mM MgCl2, 1.5 mM DTT, 135 μM ATP. […] The plates were read using either ViewLux or Victor V readers (PerkinElmer Life Sciences) using an excitation wavelength of 340 nm and dual emission wavelengths of 615 nm and 665 nm. […] For ATP competitive inhibitors, the Ki values were calculated according to the following equation: Ki=IC50/(1+S/Km) where S refers to the substrate concentration (ATP) and Km refers to the Michaelis-Menten constant for the ATP.

IC50 [1] [µM] | Ki [2] [µM] | Ki ([3]; read-out: Ki for cdk2) [µM] | Ki [4] [µM] | Ki ([3]; read-out: Ki for cdk2 (unit inferred)) [µM] | SMILES
3 | 0.154 | 0.039 | 0.008 | – | COc1cc(Cl)c(F)cc1C(=O)c1ccc(NC2CCN(S(C)(=O)=O)CC2)nc1N [Example 49, [2-Amino-6-(1-methanesulfonyl-piperidin-4-ylamino)-pyridin-3-yl]-(4-chloro-5-fluoro-2-methoxy-phenyl)-methanone]
9 | – | 0.098 | 0.04 | – | COc1ccc(F)cc1C(=O)c1ccc(NC2CCN(S(C)(=O)=O)CC2)nc1N [Example 23, [2-Amino-6-(1-methanesulfonyl-piperidin-4-ylamino)-pyridin-3-yl]-(5-fluoro-2-methoxy-phenyl)-methanone]
2.6 | 0.06 | – | 0.017 | 0.054 | COc1ccc(F)c(F)c1C(=O)c1ccc(NC2CCN(S(C)(=O)=O)CC2)nc1N [Example 40, [2-Amino-6-(1-methanesulfonyl-piperidin-4-ylamino)-pyridin-3-yl]-(2,3-difluoro-6-methoxy-phenyl)-methanone]
